Series [1] addresses EGFR (Homo sapiens, UniProt P00533). In words: In vitro kinase assay, EGFR. Format: biochemical. The conditions noted are these: for IC50: in vitro kinase assay, mean values; for inhibition at 1 µM: mean ± S.D., read-out: % inhibition at 1 μM, EGFR(h). The protocol:
All kinase assays were carried out using KinaseProfiler^TM and IC50 Profiler^TM (Millipore UK Ltd., Dundee, UK. Now Eurofins Scientific, Dundee, UK). All IC50 data were presented as the mean values.

For series [2], the target named is T1, VEGFR-2 (Homo sapiens, UniProt P35968).
T1 construct: purchased Millipore UK Ltd., Dundee, UK (now Eurofins Scientific); KinaseProfiler / IC50 Profiler service
Description: In vitro kinase assay, VEGFR-2. The series is classed as biochemical. The conditions noted are these: for IC50: in vitro kinase assay; for inhibition at 1 µM: mean ± S.D., read-out: % inhibition at 1 μM, VEGFR-2 (h). On the procedure: (§1) All kinase assays were carried out using KinaseProfiler^TM and IC50 Profiler^TM (Millipore UK Ltd., Dundee, UK. Now Eurofins Scientific, Dundee, UK). All IC50 data were presented as the mean values. The Curves obtained to determine IC50 values were shown in Supporting Information (S1 Fig).

Series [3] relates to HCC827 cells. Description: HCC827 cell viability assay. The series is classed as cell-based. The conditions noted are these: Homo sapiens, 72 h, read-out: HCC827 IC50 (anti-proliferative activity). On the procedure:
HCC827 cells were purchased from the American Type Culture Collection (ATCC, Manassas, VA, USA). […] Human umbilical vein endothelial cells (HUVECs, ScienCell Research Laboratories, Carlsbad, CA, USA) were cultured in endothelial growth medium-2 (EGM-2; Lonza, Walkersville, MD, USA) from passages 3 to 6.
After a 24-hour incubation, the cells were treated with a series of test compound dilutions for 72 hours. Cell viability was assessed using EZ-Cytox (Daeil Lab Service, Seoul, South Korea) according to the manufacturer’s instructions.
Cells were incubated for 72 h with a range of concentrations of MKP101, and cell viability was measured using the WST-1 assay. […] Western blot analysis using antibodies to phosphorylated and total EGFR from a representative experiment is shown. Cells were incubated for 3 h at the indicated concentration. (C) Graph showing the relative intensities of the total and phosphorylated EGFR as determined by band densitometry. IC50, half-maximal inhibitory concentration.

The target of series [4] is T2, EGFR (L858R) (Homo sapiens, UniProt P00533, L858R).
T2 construct: purchased Millipore UK Ltd., Dundee, UK (now Eurofins Scientific); KinaseProfiler / IC50 Profiler service
Description: In vitro kinase assay, EGFR (L858R). The series is classed as biochemical. The conditions noted are these: 1 μM, mean ± S.D.; read-out: % inhibition at 1 μM, EGFR(L858R)(h). On the procedure: as §1

Series [5] has as its target T3, FGFR1 (Homo sapiens, UniProt P11362).
T3 construct: purchased Millipore UK Ltd., Dundee, UK (now Eurofins Scientific); KinaseProfiler / IC50 Profiler service
Description: In vitro kinase assay, FGFR1. The series is classed as biochemical. The conditions noted are these: 1 μM, mean ± S.D.; read-out: % inhibition at 1 μM, FGFR1 (h). The protocol:
as §1

Series [6] deals with T4, FGFR3 (Homo sapiens, UniProt P22607).
T4 construct: purchased Millipore UK Ltd., Dundee, UK (now Eurofins Scientific); KinaseProfiler / IC50 Profiler service
Description: In vitro kinase assay, FGFR3. The series is classed as biochemical. The conditions noted are these: 1 μM, mean ± S.D.; read-out: % inhibition at 1 μM, FGFR3 (h). The protocol:
as §1

In series [7] the target is T5, VEGFR-1 (Homo sapiens, UniProt P17948).
T5 construct: purchased Millipore UK Ltd., Dundee, UK (now Eurofins Scientific); KinaseProfiler / IC50 Profiler service
In words: In vitro kinase assay, VEGFR-1. The series is classed as biochemical. The conditions noted are these: 1 μM, mean ± S.D.; read-out: % inhibition at 1 μM, VEGFR-1 (h). The protocol:
as §1

Series [8] concerns the target T6, VEGFR-3 (Homo sapiens, UniProt P35916).
T6 construct: purchased Millipore UK Ltd., Dundee, UK (now Eurofins Scientific); KinaseProfiler / IC50 Profiler service
Description: In vitro kinase assay, VEGFR-3. The series is classed as biochemical. The conditions noted are these: 1 μM, mean ± S.D.; read-out: % inhibition at 1 μM, VEGFR-3 (h). The protocol: as §1

Series [9] concerns the target T7, PDGFRα (Homo sapiens, UniProt P16234).
T7 construct: purchased Millipore UK Ltd., Dundee, UK (now Eurofins Scientific); KinaseProfiler / IC50 Profiler service
Description: In vitro kinase assay, PDGFRα. Format: biochemical. The conditions noted are these: 1 μM, mean ± S.D.; read-out: % inhibition at 1 μM, PDGFRα (h). The protocol:
as §1

For series [10], the target named is T8, PDGFRβ (Homo sapiens, UniProt P09619).
T8 construct: purchased Millipore UK Ltd., Dundee, UK (now Eurofins Scientific); KinaseProfiler / IC50 Profiler service
In words: In vitro kinase assay, PDGFRβ. The conditions noted are these: 1 μM, mean ± S.D.; read-out: % inhibition at 1 μM, PDGFRβ (h). Format: biochemical. The protocol:
as §1

The target in series [11] is T9, cKit (Homo sapiens, UniProt P10721).
T9 construct: purchased Millipore UK Ltd., Dundee, UK (now Eurofins Scientific); KinaseProfiler / IC50 Profiler service
Description: In vitro kinase assay, cKit. The conditions noted are these: 1 μM, mean ± S.D.; read-out: % inhibition at 1 μM, cKit(h). Format: biochemical. The protocol: as §1

Series [12] deals with HUVECs. In words: HUVEC viability assay (cytotoxicity). The series is classed as cell-based, human. The conditions noted are these: 24 hours. The protocol:
HCC827 cells were purchased from the American Type Culture Collection (ATCC, Manassas, VA, USA). Cells were grown in RPMI 1640 (Welgene Inc., Daegu, Republic of Korea) supplemented with 10% fetal bovine serum (FBS) (Welgene Inc.) and 1% penicillin-streptomycin (Gibco®, Life Technologies, Carlsbad, CA, USA) in a humidified 5% CO2 atmosphere at 37°C. Human umbilical vein endothelial cells (HUVECs, ScienCell Research Laboratories, Carlsbad, CA, USA) were cultured in endothelial growth medium-2 (EGM-2; Lonza, Walkersville, MD, USA) from passages 3 to 6.
For the HUVEC viability assay, HUVECs were treated with phosphate-buffered saline (PBS) or the indicated concentrations of VEGF inhibitors in EGM-2 medium for 24 hours. After the cells were washed with PBS, they were counted using an inverted light microscope (Nikon Eclipse Ti-U; Nikon Corp., Tokyo, Japan) in 5 random fields from each well.

Series [13] relates to HUVECs. Description: VEGF-induced tube formation assay. The series is classed as cell-based, human. The conditions noted are these: VEGF 50 ng/mL, compound 1 μg/mL. The protocol:
For analyzing of the antagonistic response to VEGF, tube formation, scratch wound migration, and cell proliferation assays were performed after the exposure of HUVECs to 50 ng/mL VEGF-A (R&D Systems, Minneapolis, MN), which induced a significant angiogenic response. For the cell proliferation assays, cells were incubated overnight in endothelial basal media (EBM; Lonza, Walkersville, MD, USA) containing 0.5% FBS or supplemented with VEGF-A and/or VEGF inhibitors. The cells were washed with PBS and counted in 4 random microscope fields. The tube formation assay was performed by seeding cells on Matrigel-coated plates (BD Bioscience, Bedford, MA, USA) and incubating in EBM containing 0.5% FBS or supplemented with VEGF-A and/or VEGF inhibitors. After overnight incubation, tubule networks were quantified by measuring the tubule length in 4 random microscope fields. For the analysis of scratch wound migration, confluent cell monolayers grown on 6-well plates were scratched using a micropipette tip. […] Cell migration was observed by optical microscopy and quantified by measuring the number of cells that had migrated from the wound edges.
In (A) and (B), the number of cells was expressed as the fold change with respect to the number of cells seeded at day 0. […]

“Also recorded” adds a separate entry of the source.

T5 sequence (P17948 27-1338): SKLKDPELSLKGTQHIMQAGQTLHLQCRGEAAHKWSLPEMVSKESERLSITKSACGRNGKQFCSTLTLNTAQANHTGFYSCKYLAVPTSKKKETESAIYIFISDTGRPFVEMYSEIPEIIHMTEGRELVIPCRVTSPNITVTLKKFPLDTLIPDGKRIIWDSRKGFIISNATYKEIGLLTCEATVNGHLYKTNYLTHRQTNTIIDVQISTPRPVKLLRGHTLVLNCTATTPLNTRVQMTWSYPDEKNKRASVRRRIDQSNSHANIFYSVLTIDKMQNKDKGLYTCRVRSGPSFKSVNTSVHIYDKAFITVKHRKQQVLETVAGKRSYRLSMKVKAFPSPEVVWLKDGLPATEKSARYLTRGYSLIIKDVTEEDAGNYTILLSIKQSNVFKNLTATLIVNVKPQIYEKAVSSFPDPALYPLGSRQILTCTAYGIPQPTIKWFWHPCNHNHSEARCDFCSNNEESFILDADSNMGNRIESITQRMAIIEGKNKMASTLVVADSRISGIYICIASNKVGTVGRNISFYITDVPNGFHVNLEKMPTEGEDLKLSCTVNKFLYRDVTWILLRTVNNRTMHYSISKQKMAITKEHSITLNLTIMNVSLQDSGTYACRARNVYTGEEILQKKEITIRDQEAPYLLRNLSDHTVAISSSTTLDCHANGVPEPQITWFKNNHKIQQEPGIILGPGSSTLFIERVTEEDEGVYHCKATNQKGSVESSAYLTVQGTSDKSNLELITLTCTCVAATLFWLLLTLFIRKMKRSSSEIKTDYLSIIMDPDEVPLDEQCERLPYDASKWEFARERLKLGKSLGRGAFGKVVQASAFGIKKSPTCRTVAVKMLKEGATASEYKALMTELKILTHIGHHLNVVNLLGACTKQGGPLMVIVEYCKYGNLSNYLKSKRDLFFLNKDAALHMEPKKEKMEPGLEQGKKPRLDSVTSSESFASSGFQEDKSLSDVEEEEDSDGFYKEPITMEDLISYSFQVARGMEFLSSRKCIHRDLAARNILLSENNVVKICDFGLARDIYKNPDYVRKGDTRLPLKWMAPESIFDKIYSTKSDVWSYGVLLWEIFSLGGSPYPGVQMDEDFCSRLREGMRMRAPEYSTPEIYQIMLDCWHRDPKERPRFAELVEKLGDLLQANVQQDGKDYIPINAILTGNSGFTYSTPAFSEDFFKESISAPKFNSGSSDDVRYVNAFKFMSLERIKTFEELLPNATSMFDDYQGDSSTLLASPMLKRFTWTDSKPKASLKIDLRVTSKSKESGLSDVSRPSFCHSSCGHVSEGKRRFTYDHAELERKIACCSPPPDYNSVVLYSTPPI
T2 sequence (P00533 25-1210 L858R): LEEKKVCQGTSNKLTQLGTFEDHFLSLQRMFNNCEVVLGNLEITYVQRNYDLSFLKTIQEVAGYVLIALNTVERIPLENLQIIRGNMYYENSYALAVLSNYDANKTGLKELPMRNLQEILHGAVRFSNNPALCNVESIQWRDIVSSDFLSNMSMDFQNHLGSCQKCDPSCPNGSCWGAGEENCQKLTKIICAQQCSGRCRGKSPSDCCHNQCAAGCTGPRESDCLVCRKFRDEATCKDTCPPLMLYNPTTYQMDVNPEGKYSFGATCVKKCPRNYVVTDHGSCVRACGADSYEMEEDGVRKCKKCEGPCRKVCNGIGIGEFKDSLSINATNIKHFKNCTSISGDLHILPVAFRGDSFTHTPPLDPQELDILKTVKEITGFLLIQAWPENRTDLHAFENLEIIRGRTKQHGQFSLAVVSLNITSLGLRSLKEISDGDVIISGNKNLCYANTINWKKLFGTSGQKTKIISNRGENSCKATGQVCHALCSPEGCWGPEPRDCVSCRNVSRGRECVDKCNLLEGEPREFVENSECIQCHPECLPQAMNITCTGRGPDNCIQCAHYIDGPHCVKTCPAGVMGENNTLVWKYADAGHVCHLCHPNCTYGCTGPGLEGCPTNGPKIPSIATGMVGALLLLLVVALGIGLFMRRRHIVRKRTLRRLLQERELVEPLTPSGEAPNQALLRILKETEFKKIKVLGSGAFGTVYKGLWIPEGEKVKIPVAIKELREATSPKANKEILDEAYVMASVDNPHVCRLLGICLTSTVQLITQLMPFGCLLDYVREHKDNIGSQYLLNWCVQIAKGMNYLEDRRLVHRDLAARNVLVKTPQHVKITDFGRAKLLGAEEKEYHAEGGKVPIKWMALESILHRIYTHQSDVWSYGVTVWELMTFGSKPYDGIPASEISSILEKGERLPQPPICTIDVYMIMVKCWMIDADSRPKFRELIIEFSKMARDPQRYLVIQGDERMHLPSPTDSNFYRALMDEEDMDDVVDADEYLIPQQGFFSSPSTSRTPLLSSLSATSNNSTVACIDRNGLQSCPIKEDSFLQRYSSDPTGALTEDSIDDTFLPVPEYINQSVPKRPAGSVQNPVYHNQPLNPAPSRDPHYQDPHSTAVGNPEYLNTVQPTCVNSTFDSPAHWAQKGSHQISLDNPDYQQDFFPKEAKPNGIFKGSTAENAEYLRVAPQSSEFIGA
T1 sequence (P35968 20-1356): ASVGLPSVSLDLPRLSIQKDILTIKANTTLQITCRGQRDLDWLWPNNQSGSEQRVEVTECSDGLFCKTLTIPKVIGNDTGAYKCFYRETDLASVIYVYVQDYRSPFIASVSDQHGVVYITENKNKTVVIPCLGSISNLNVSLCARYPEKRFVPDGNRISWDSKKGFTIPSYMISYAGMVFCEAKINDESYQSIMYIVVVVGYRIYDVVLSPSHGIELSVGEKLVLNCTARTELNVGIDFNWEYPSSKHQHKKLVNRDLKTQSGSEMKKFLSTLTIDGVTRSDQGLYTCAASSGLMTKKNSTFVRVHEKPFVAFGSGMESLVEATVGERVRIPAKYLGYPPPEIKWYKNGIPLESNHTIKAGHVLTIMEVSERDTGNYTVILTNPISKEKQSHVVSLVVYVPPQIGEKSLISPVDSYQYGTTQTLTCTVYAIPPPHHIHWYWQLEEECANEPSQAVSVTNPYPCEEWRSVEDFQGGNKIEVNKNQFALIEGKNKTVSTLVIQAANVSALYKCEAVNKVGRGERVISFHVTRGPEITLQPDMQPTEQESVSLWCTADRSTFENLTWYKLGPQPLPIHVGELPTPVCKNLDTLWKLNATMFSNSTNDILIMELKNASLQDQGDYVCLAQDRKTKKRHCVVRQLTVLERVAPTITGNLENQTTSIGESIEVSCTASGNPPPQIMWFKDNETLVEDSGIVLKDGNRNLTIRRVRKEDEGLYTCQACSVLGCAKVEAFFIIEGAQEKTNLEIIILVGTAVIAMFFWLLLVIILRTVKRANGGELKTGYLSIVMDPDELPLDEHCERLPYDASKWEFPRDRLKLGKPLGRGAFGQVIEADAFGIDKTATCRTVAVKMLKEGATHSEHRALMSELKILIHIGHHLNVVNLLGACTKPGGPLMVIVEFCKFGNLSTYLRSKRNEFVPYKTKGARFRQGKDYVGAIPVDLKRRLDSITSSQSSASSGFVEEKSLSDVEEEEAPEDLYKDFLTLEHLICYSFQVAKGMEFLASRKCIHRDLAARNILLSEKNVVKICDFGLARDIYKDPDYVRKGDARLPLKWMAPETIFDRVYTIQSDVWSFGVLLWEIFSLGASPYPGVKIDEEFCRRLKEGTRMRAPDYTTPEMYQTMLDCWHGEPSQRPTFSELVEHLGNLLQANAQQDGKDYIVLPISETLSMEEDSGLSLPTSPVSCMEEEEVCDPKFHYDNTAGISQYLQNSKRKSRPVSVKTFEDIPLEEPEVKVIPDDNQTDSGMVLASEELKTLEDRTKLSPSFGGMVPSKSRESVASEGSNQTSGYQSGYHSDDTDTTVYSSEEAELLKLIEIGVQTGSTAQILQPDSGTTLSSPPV
EGFR, sequence (P00533 25-1210): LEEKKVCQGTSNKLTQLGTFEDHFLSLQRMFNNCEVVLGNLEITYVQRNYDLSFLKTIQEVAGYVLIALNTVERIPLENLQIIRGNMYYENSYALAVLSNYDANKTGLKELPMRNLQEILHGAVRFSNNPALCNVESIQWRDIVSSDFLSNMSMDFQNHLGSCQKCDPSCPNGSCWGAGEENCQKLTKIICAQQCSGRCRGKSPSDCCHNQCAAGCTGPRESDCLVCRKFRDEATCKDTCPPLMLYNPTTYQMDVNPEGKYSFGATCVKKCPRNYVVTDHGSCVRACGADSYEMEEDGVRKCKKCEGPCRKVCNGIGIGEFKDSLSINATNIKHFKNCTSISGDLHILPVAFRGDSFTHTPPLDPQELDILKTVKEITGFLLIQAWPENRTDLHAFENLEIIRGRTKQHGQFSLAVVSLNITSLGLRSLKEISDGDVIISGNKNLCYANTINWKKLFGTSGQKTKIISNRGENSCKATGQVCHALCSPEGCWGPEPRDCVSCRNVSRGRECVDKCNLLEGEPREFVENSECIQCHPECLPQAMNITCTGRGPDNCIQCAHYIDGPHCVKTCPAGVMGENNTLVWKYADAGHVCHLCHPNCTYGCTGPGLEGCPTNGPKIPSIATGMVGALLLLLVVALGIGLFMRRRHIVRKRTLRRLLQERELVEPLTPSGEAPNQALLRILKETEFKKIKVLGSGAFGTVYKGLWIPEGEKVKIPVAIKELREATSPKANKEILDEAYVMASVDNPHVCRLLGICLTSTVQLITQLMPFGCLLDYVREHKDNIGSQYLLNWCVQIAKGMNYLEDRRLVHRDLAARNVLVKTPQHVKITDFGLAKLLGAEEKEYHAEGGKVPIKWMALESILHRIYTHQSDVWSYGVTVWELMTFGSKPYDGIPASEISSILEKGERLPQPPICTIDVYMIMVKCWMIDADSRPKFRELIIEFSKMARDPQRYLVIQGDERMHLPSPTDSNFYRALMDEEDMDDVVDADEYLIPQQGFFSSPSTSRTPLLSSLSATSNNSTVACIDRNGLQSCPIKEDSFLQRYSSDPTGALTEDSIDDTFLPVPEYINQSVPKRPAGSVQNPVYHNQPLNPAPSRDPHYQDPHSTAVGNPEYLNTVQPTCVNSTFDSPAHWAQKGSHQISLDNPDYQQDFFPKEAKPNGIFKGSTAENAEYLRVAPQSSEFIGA

As to `CN(c1ccc2[nH]ccc2c1)c1ccnc(Nc2ccc(OCCCCN3CCOCC3)cc2)n1` [MKP108], the values for the IC50 in [1] and in series [2] were 200 nM and 26 nM, respectively.
The matching figures for `Fc1cc(Nc2nccc(Nc3ccc4[nH]ccc4c3)n2)ccc1N1CCOCC1` [MKP113]: 1630 nM and 30 nM.
As for `c1nc(Nc2ccc(N3CCOCC3)cc2)cc(Oc2ccc3[nH]ccc3c2)n1` [MKP120], the concentration for half-maximal inhibition (IC50) (usually the concentration that inhibits the measured activity by half) turned out to be 10 nM in series [1] and 32 nM in [2].
On to `Cc1ccc(Nc2nccc(N(C)c3ccc4[nH]cc(C)c4c3)n2)cc1S(N)(=O)=O` [MKP102], for which the inhibition (usually how much of the control response was suppressed) at 1 µM in series [1] stood at 93 ± 2%. Moreover, the concentration for half-maximal inhibition (IC50) in series [1] came to 55 nM; in series [3] it was 197 nM.
For `Cc1ccc(Nc2nccc(Oc3ccc4[nH]ccc4c3)n2)cc1S(N)(=O)=O` [MKP122], the inhibition at 1 µM in series [1] amounted to 35 ± 2%; in [4] it was 66%; in series [5], 83%; in series [6] it was 65 ± 4%; in series [7], 100%; in series [2] it was 96%. Further, the inhibition at 1 µM in series [8] was determined as 100%; in series [9] it was 87 ± 1%; in series [10], 92%; in series [11], 99 ± 1%. Further, the concentration for half-maximal inhibition (IC50) is 2040 nM in series [1] and 20 nM in [2].
Turning to `COc1ccc(Nc2nccc(Nc3ccc4[nH]ccc4c3)n2)cc1N1CCOCC1` [MKP115], the IC50 in series [1] was 56 nM; in series [2], 10 nM.
Consider `Cc1ccc(Nc2cc(Oc3ccc4[nH]ccc4c3)ncn2)cc1S(N)(=O)=O` [MKP123], for which the inhibition at 1 µM in [1] was determined as 100%; in series [4], 99 ± 1%; in [5], 20 ± 6%; in [6], 21 ± 2%; in series [7], 99 ± 1%; in series [2], 97%. The inhibition at 1 µM in series [8] was found to be 100%; in [9], 30 ± 3%; in series [10], 44 ± 3%; in [11], 53 ± 9%. For the same molecule, the IC50 was determined as 18 nM in [1] and 45 nM in series [2].
`Fc1cc(Nc2nccc(Nc3ccc4[nH]ccc4c3)n2)cc(N2CCOCC2)c1` [MKP114]: the figures for the IC50 in series [1] and in [2] were 610 nM and 41 nM, respectively.
`Cc1cc2cc(N(C)c3ccnc(Nc4ccc(C)c(S(N)(=O)=O)c4)n3)ccc2[nH]1` [MKP103]: in [1], the inhibition at 1 µM was 42 ± 4%. Besides, the half-maximal inhibitory concentration (IC50) in series [3] stood at 1630 nM.
Regarding `COc1ccc(Nc2cc(Oc3ccc4[nH]ccc4c3)ncn2)cc1N1CCOCC1` [MKP121], the inhibition at 1 µM in series [1] stood at 94 ± 2%; in series [4], 98%; in series [5], 29 ± 5%; in series [6], 13 ± 4%; in [7], 99 ± 2%; in series [2], 96%. For the same molecule, the inhibition at 1 µM in [8] is 98%; in series [9], 37 ± 1%; in [10] it was 48%; in series [11] it was 70 ± 3%. The values for the IC50 in [1] and in series [2] were 31 nM and 30 nM, respectively.
For the molecule `c1cc(Nc2ccc3[nH]ccc3c2)nc(Nc2ccc(OCCN3CCOCC3)cc2)n1` [MKP106], the figures for the 50% inhibitory concentration (IC50) in series [1] and in series [2] were 210 nM and 20 nM, respectively.
On the same counts, the results for `c1nc(Nc2ccc(N3CCOCC3)cc2)cc(Nc2ccc3[nH]ccc3c2)n1` [MKP118] are 7 nM and 1200 nM.
As for `c1cc(Nc2ccc3[nH]ccc3c2)nc(Nc2ccc(N3CCOCC3)cc2)n1` [MKP109], the IC50 is 240 nM in series [1] and 50 nM in [2].
As to `Cc1ccc(Nc2nccc(N(C)c3ccc4c(C)n(C)nc4c3)n2)cc1S(N)(=O)=O` [Pazopanib, 5-[[4-[(2,3-dimethyl-2H-indazol-6-yl)methylamino]-2-pyrimidinyl]amino]-2-methyl-benzenesulfonamide, reference compound], the “EGFR inhibition (in words)” value in [1] is reported as “did not inhibit EGFR; also recorded: no inhibitory effect against EGFR”. Moreover, the “Cytotoxicity in HUVECs” value is listed as “No cytotoxicity was observed” in series [12] (1 μg/mL); “significant endothelial cytotoxicity” in series [12] (5 and 10 μg/mL). Moreover, the “Effect on VEGF-induced increase in tube formation” value in [13] is listed as “significantly inhibited”.
Turning to `CN(c1ccc2c(ccn2C)c1)c1ccnc(Nc2ccc(N3CCOCC3)cc2)n1` [MKP112], the IC50 in series [1] turned out to be 10100 nM; in series [2] it was 360 nM.
The matching figures for `CN(c1ccc2[nH]ccc2c1)c1cc(Nc2ccc(N3CCOCC3)cc2)ncn1` [MKP119]: 35 nM and more than 3000 nM.
As for `COc1cc(Nc2nccc(N(C)c3ccc4[nH]ccc4c3)n2)cc(N2CCOCC2)c1` [MKP117], the figures for the IC50 in series [1] and in series [2] were 33 nM and 17 nM, respectively.
For the molecule `COc1cc(Nc2nccc(Nc3ccc4[nH]ccc4c3)n2)cc(N2CCOCC2)c1` [MKP116], the IC50 came to 41 nM in series [1] and 20 nM in series [2].
The matching figures for `Cn1ccc2cc(Nc3ccnc(Nc4ccc(N5CCOCC5)cc4)n3)ccc21` [MKP111]: 2240 nM and 1570 nM.
For `Cc1ccc(Nc2nccc(N(C)c3ccc4c(ccn4C)c3)n2)cc1S(N)(=O)=O` [MKP104], the inhibition at 1 µM in series [1] worked out at 20 ± 4%. Further, the IC50 in series [3] was 2680 nM.
On the same counts, the results for `Cc1ccc(Nc2nccc(N(C)c3ccc4cc[nH]c4c3)n2)cc1S(N)(=O)=O` [MKP105] are 47 ± 2% and 1460 nM.
For `c1cc(Nc2ccc3[nH]ccc3c2)nc(Nc2ccc(OCCCCN3CCOCC3)cc2)n1` [MKP107], the IC50 in series [1] stood at 178 nM; in series [2] it was 130 nM.
`c1cc(Nc2nccc(Nc3ccc4[nH]ccc4c3)n2)cc(N2CCOCC2)c1` [MKP110]: the IC50 is 180 nM in series [1] and 30 nM in series [2].

These data come from publication PMC4581874 (PLoS ONE, 2015).
